Measurements as given in ChEMBL document CHEMBL1201862, “PubChem BioAssay data set” (2004).
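All cell lines were grown in 96-well plates and treated with compound for 48 hours. Here, GI50 denotes the concentration required for 50% inhibition of growth.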 The source made the active and inactive calls. Cut-off read from the data, not from the text of the source: active = GI50 up to about 1.1 µM and inactive = higher.

Assays:
Test in all cases: NCI anticancer screen, dose series, 48 h
786-0 = tested on: 786-0
ACHN = tested on: ACHN
CCRF-CEM = tested on: CCRF-CEM
COLO 205 = tested on: COLO 205
HL-60 = tested on: HL-60
HOP-62 = tested on: HOP-62
IGROV-1 = tested on: IGROV-1
LOX IMVI = tested on: LOX IMVI
NCI-H23 = tested on: NCI-H23
NCI-H522 = tested on: NCI-H522
RXF 393 = tested on: RXF 393
SF-295 = tested on: SF-295
SK-MEL-28 = tested on: SK-MEL-28
SK-MEL-2 = tested on: SK-MEL-2
SNB-75 = tested on: SNB-75
TK-10 = tested on: TK-10
UACC-62 = tested on: UACC-62
MDA-MB-231 = tested on: MDA-MB-231
PC-3 = tested on: PC-3
T47D = tested on: T47D

Measured: GI50

CCOC(=O)C1([Se]c2ccccc2)CCCC1=O (configuration not stated)
inactive: 786-0 14.2 µM | ACHN 20.3 µM | CCRF-CEM 15.2 µM | COLO 205 16 µM | HL-60 4.78 µM | HOP-62 96.8 µM | IGROV-1 18.6 µM | LOX IMVI 13.1 µM | NCI-H23 17.4 µM | NCI-H522 3.6 µM | RXF 393 7.82 µM | SF-295 31.8 µM | SK-MEL-28 18.9 µM | SK-MEL-2 32.8 µM | SNB-75 23.6 µM | TK-10 77.6 µM | UACC-62 14.7 µM

OCC1OC(c2ccccc2)CC1O (configuration not stated)
inactive: 786-0 > 100 µM | ACHN > 100 µM | CCRF-CEM > 100 µM | COLO 205 > 100 µM | HL-60 > 100 µM | IGROV-1 > 100 µM | LOX IMVI > 100 µM | MDA-MB-231 > 100 µM | RXF 393 > 100 µM | SF-295 > 100 µM | SK-MEL-28 > 100 µM | SK-MEL-2 > 100 µM | SNB-75 > 100 µM | TK-10 > 100 µM | UACC-62 > 100 µM

COCOC1C=CCCCC2=CC(C)=C(CC1)O2 (configuration not stated)
inactive: 786-0 > 100 µM | ACHN > 100 µM | CCRF-CEM 74.6 µM | COLO 205 > 100 µM | HOP-62 > 100 µM | IGROV-1 > 100 µM | LOX IMVI > 100 µM | MDA-MB-231 > 100 µM | NCI-H23 > 100 µM | NCI-H522 > 100 µM | PC-3 > 100 µM | RXF 393 > 100 µM | SF-295 > 100 µM | SK-MEL-28 > 100 µM | SNB-75 > 100 µM | TK-10 > 100 µM | UACC-62 > 100 µM

CN1CCc2cc3c4cc2C1Cc1ccc(cc1)Oc1cc(ccc1O)CC1c2c(cc(O)c(c2O4)O3)CCN1C (configuration not stated)
inactive: 786-0 5.26 µM | ACHN 7.52 µM | CCRF-CEM 2.52 µM | COLO 205 5.65 µM | HL-60 4.65 µM | HOP-62 5.4 µM | IGROV-1 4.43 µM | LOX IMVI 1.66 µM | NCI-H23 3.6 µM | NCI-H522 2.79 µM | RXF 393 3.24 µM | SF-295 1.56 µM | SK-MEL-28 1.8 µM | SK-MEL-2 1.67 µM | SNB-75 3.53 µM | TK-10 10.6 µM | UACC-62 2.02 µM

C/C(N)=C/C(=O)c1[nH]c(C(=O)O)cc1C1CCN(Cc2ccccc2)C1=O (configuration not stated)
inactive: 786-0 26.7 µM | ACHN 30 µM | COLO 205 23.9 µM | HOP-62 18.4 µM | IGROV-1 27.2 µM | MDA-MB-231 41.1 µM | NCI-H23 22.8 µM | NCI-H522 20.6 µM | PC-3 37.6 µM | RXF 393 18.5 µM | SF-295 21.3 µM | SK-MEL-28 24.3 µM | SK-MEL-2 28.9 µM | SNB-75 23.1 µM | T47D 22.8 µM | TK-10 38.5 µM | UACC-62 22.3 µM

Fc1cccc(Cl)c1C1SCc2nc3cc4ccccc4cc3n21 (configuration not stated)
inactive: 786-0 39.4 µM | ACHN > 100 µM | CCRF-CEM > 100 µM | COLO 205 > 100 µM | HOP-62 35 µM | IGROV-1 46.9 µM | LOX IMVI > 100 µM | MDA-MB-231 61.5 µM | NCI-H23 > 100 µM | PC-3 > 100 µM | RXF 393 > 100 µM | SF-295 62.7 µM | SK-MEL-28 > 100 µM | SK-MEL-2 > 100 µM | T47D > 100 µM | TK-10 62.7 µM | UACC-62 43.6 µM

CCN(CC)CCCNC(=O)c1ccc([N+](=O)[O-])cc1O
inactive: 786-0 > 100 µM | ACHN > 100 µM | CCRF-CEM > 100 µM | COLO 205 > 100 µM | HL-60 > 100 µM | HOP-62 > 100 µM | IGROV-1 > 100 µM | LOX IMVI > 100 µM | NCI-H23 > 100 µM | NCI-H522 > 100 µM | RXF 393 > 100 µM | SF-295 > 100 µM | SK-MEL-28 > 100 µM | SK-MEL-2 > 100 µM | SNB-75 > 100 µM | TK-10 > 100 µM | UACC-62 > 100 µM

O=C(N/N=C/c1cccc(F)c1)c1ccncc1
inactive: 786-0 > 100 µM | ACHN > 100 µM | CCRF-CEM > 100 µM | COLO 205 > 100 µM | HL-60 > 100 µM | HOP-62 > 100 µM | LOX IMVI > 100 µM | NCI-H23 > 100 µM | NCI-H522 > 10 µM | RXF 393 > 100 µM | SF-295 > 100 µM | SK-MEL-28 > 100 µM | SK-MEL-2 > 100 µM | SNB-75 > 100 µM | TK-10 > 100 µM
